Results published in BigSolDB 2.1.

O=C1CCCCCCCCCCC1
solubility (mole fraction)
Details	278.15 K	283.15 K	288.15 K	293.15 K	298.15 K	303.15 K	308.15 K	313.15 K
in 1,2-dichloroethane	0.366	0.394	0.441	0.459	0.511	0.549	0.604	0.657
in acetone	0.142	0.184	0.229	0.285	0.362	0.432	0.517	0.618
in acetonitrile	0.0485	0.0711	0.104	0.16	0.225	0.322	0.466	0.637
in cyclohexane	–	0.21	0.263	0.308	0.366	0.441	0.515	0.598
in ethanol	0.0472	0.0701	0.0949	0.127	0.183	0.243	0.348	0.461
in ethyl acetate	0.195	0.235	0.286	0.345	0.407	0.477	0.553	0.615
in isobutanol	0.0949	0.121	0.158	0.202	0.261	0.331	0.424	0.54
in isopropanol	0.0967	0.122	0.155	0.2	0.262	0.341	0.445	0.55
in methanol	0.0155	0.0267	0.04	0.0679	0.108	0.166	0.272	0.399
in n-butanol	0.0988	0.125	0.164	0.204	0.258	0.327	0.415	0.527
in n-propanol	0.118	0.144	0.182	0.228	0.293	0.37	0.467	0.567
in toluene	0.33	0.378	0.41	0.454	0.501	0.553	0.607	0.675
